Measured values published in PMC12090182, “Repurposing of the RIPK1-Selective Benzo[1,4]oxazepin-4-one Scaffold for the Development of a Type III LIMK1/2 Inhibitor” (ACS Chemical Biology, 2025).

Columns and labels:
Test in all cases: biochemical
Assay type in all cases: binding
[1] = target: 468 kinases including some pathogenic mutants (Homo sapiens, UniProt P43405); conditions: SYK (Entrez SYK), 100 nM; read-out: Percent Control
[2] = target: 468 kinases including some pathogenic mutants (Homo sapiens, UniProt Q9UPE1); conditions: SRPK3 (Entrez SRPK3), 1000 nM; read-out: Percent Control
[3] = target: 468 kinases including some pathogenic mutants (Homo sapiens, UniProt P42336, I800L); conditions: read-out: Percent Control
[4] = target: 468 kinases including some pathogenic mutants (Homo sapiens, UniProt Q8N5S9); conditions: CAMKK1 (Entrez CAMKK1), 100 nM; read-out: Percent Control
[5] = target: 468 kinases including some pathogenic mutants (Homo sapiens, UniProt P20794); conditions: MAK (Entrez MAK), 1000 nM; read-out: Percent Control
[6] = target: 468 kinases including some pathogenic mutants (Homo sapiens, UniProt P24941); conditions: CDK2 (Entrez CDK2), 100 nM; read-out: Percent Control
[7] = target: 468 kinases including some pathogenic mutants (Homo sapiens, UniProt P53779); conditions: JNK3 (Entrez MAPK10), 100 nM; read-out: Percent Control
[8] = target: 468 kinases including some pathogenic mutants (Homo sapiens, UniProt P11309); conditions: PIM1 (Entrez PIM1), 100 nM; read-out: Percent Control
[9] = target: 468 kinases including some pathogenic mutants (Homo sapiens, UniProt O94804); conditions: LOK (Entrez STK10), 100 nM; read-out: Percent Control
[10] = target: 468 kinases including some pathogenic mutants (Homo sapiens, UniProt Q9UBF8); conditions: PIK4CB (Entrez PI4KB), 100 nM; read-out: Percent Control
[11] = target: 468 kinases including some pathogenic mutants (Homo sapiens, UniProt Q8IW41); conditions: MAPKAPK5 (Entrez MAPKAPK5), 1000 nM; read-out: Percent Control
[12] = target: 468 kinases including some pathogenic mutants (Homo sapiens, UniProt O43683); conditions: BUB1 (Entrez BUB1), 100 nM; read-out: Percent Control
[13] = target: 468 kinases including some pathogenic mutants (Homo sapiens, UniProt Q02156); conditions: PRKCE (Entrez PRKCE), 1000 nM; read-out: Percent Control
[14] = target: 468 kinases including some pathogenic mutants (Homo sapiens, UniProt P29323); conditions: EPHB2 (Entrez EPHB2), 100 nM; read-out: Percent Control
[15] = target: 468 kinases including some pathogenic mutants (Homo sapiens, UniProt Q8IYT8); conditions: ULK2 (Entrez ULK2), 1000 nM; read-out: Percent Control
[16] = target: 468 kinases including some pathogenic mutants (Homo sapiens, UniProt P31749); conditions: AKT1 (Entrez AKT1), 100 nM; read-out: Percent Control
RET(V804M) = RET(V804M) (Homo sapiens, UniProt P07949, V804M); conditions: 1000 nM, read-out: Percent Control
FLT3(D835V) = FLT3(D835V) (Homo sapiens, UniProt P36888, D835V); conditions: 1000 nM, read-out: Percent Control
[17] = target: ABL1(F317L)-nonphosphorylated (Homo sapiens, UniProt P00519, F317L); conditions: read-out: Percent Control
[18] = target: ABL1(Q252H)-phosphorylated (Homo sapiens, UniProt P00519, Q252H); conditions: read-out: Percent Control
KIT(L576P) = KIT(L576P) (Homo sapiens, UniProt P10721, L576P); conditions: 1000 nM, read-out: Percent Control
EGFR(L861Q) = EGFR(L861Q) (Homo sapiens, UniProt P00533, L861Q); conditions: 1000 nM, read-out: Percent Control
PIK3CA(H1047Y) = PIK3CA(H1047Y) (Homo sapiens, UniProt P42336, H1047Y); conditions: compound concentration 100 nM; Entrez PIK3CA; read-out: Percent Control
KIT(A829P) = KIT(A829P) (Homo sapiens, UniProt P10721, A829P); conditions: compound concentration 100 nM; Entrez KIT; read-out: Percent Control
EGFR(T790M) = EGFR(T790M) (Homo sapiens, UniProt P00533, T790M); conditions: compound concentration 100 nM; Entrez EGFR; read-out: Percent Control
RET(V804L) = RET(V804L) (Homo sapiens, UniProt P07949, V804L); conditions: compound concentration 100 nM; Entrez RET; read-out: Percent Control
FLT3(D835H) = FLT3(D835H) (Homo sapiens, UniProt P36888, D835H); conditions: 1000 nM, read-out: Percent Control
[19] = target: EGFR(L747-E749del, A750P) (Homo sapiens, UniProt P00533, A750P/DEL747-749); conditions: compound concentration 100 nM; Entrez EGFR; read-out: Percent Control
PIK3CA(Q546K) = PIK3CA(Q546K) (Homo sapiens, UniProt P42336, Q546K); conditions: read-out: Percent Control
ALK(C1156Y) = ALK(C1156Y) (Homo sapiens, UniProt Q9UM73, C1156Y); conditions: 1000 nM, read-out: Percent Control

Sequence of 468 kinases including some pathogenic mutants (Homo sapiens, UniProt P20794) (P20794 whole entry, change not shown): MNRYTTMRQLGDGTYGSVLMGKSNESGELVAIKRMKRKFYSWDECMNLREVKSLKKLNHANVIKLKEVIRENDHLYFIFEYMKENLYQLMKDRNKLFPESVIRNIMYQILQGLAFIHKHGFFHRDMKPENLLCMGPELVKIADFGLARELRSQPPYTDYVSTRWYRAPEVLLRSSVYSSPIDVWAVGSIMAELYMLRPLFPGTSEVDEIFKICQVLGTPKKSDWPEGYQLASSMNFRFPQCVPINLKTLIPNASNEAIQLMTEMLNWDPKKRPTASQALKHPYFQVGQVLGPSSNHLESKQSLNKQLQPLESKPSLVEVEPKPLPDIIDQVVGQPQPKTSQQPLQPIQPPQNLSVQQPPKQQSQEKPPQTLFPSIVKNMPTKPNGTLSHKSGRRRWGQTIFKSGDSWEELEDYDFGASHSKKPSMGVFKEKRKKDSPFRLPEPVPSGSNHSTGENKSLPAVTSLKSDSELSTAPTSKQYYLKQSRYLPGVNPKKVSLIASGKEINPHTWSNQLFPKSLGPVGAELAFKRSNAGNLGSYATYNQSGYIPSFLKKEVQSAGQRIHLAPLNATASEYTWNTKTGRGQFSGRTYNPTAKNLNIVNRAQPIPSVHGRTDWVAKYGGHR
Sequence of RET(V804M) (P07949 29-1114 V804M): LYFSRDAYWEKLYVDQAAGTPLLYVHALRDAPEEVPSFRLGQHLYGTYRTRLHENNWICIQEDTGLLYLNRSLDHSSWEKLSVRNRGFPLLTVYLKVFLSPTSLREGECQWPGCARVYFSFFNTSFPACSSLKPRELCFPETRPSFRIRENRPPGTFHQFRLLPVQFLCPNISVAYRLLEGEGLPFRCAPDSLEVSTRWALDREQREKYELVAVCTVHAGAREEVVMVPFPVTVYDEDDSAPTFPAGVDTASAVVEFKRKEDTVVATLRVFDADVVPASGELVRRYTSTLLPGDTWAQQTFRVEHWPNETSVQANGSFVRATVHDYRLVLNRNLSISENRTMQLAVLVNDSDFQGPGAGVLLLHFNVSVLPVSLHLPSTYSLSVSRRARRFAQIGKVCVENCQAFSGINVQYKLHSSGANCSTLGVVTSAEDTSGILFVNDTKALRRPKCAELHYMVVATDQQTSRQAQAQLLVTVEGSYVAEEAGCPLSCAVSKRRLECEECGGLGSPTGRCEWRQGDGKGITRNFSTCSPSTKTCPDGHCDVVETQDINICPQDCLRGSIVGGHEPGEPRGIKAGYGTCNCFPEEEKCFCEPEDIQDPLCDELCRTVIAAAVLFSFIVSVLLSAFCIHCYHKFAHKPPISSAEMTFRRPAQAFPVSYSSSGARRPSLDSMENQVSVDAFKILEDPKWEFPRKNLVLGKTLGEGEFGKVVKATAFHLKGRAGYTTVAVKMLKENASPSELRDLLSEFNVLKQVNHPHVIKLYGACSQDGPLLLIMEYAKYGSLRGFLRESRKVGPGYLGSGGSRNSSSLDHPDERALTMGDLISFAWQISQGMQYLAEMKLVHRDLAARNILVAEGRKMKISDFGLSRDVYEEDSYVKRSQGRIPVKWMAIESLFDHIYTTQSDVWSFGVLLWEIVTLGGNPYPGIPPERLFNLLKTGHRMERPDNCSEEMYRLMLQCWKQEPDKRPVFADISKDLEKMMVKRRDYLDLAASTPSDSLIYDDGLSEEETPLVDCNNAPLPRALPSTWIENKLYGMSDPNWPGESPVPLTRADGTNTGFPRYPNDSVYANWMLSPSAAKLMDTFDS
Sequence of 468 kinases including some pathogenic mutants (Homo sapiens, UniProt P29323) (P29323 19-1055, change not shown): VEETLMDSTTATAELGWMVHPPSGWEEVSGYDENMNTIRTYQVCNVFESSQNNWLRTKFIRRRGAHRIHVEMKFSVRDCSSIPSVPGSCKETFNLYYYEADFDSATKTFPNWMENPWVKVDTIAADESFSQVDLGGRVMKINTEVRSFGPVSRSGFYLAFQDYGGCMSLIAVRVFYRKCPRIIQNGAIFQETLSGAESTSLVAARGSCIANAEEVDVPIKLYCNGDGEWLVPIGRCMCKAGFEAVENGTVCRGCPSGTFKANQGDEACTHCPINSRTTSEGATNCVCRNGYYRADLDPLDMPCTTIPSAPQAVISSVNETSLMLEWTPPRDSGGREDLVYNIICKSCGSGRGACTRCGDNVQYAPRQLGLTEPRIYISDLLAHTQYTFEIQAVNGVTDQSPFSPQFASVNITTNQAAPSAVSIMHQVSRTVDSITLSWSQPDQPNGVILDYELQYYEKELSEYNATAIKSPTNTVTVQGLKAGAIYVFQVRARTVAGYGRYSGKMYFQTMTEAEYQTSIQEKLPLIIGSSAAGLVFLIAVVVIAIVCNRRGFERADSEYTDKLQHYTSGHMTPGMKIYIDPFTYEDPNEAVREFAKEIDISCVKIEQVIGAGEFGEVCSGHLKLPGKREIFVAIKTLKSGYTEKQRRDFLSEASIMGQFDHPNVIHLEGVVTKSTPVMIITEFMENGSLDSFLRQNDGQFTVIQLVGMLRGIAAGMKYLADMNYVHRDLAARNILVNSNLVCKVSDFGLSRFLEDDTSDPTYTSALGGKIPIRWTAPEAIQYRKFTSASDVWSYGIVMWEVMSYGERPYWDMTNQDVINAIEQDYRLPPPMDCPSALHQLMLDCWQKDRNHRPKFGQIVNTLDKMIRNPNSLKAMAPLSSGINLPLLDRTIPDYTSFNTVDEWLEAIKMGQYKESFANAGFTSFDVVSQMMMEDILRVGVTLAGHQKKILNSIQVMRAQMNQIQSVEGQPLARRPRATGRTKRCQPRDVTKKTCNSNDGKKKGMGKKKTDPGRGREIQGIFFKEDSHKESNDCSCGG
Sequence of 468 kinases including some pathogenic mutants (Homo sapiens, UniProt Q9UPE1) (Q9UPE1 whole entry, stated change not applied): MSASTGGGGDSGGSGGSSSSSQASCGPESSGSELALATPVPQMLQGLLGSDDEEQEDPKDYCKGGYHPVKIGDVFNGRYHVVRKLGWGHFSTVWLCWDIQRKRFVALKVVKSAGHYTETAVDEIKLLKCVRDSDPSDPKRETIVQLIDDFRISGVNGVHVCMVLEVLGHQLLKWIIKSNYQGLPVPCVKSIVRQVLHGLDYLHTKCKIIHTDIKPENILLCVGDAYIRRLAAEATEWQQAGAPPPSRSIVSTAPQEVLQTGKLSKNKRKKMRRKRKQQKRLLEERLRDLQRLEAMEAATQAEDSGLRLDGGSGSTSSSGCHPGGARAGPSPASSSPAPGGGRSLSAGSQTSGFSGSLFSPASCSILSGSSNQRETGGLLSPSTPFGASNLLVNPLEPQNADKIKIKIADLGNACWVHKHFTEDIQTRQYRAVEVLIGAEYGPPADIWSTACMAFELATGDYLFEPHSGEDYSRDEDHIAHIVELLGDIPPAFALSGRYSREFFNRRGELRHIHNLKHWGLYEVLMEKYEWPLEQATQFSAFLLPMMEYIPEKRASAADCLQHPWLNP
Sequence of KIT(L576P) (P10721 26-976 L576P): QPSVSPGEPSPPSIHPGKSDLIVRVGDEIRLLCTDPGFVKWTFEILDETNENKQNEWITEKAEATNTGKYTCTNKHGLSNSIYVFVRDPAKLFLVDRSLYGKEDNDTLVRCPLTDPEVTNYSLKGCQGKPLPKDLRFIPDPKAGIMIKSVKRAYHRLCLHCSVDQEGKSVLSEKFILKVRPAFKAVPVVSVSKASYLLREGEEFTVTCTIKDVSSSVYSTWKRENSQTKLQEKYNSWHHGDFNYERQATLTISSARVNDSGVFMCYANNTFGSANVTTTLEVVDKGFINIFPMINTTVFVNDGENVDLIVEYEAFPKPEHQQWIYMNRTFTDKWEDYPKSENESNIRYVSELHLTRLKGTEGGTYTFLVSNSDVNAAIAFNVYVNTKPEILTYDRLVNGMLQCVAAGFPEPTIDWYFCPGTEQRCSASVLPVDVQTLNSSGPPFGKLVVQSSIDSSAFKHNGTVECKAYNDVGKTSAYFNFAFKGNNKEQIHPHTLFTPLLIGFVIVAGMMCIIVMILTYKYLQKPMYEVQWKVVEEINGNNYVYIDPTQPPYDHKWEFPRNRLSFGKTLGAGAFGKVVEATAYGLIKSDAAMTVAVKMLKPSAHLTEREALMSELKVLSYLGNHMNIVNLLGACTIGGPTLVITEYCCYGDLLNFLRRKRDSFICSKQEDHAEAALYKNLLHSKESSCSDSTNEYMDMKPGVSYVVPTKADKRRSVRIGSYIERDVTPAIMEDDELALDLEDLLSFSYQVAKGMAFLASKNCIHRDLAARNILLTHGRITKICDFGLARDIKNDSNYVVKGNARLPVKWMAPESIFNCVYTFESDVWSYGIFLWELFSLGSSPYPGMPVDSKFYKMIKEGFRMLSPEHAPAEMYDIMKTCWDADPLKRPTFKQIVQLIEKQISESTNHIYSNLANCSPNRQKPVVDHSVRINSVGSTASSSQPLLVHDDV
Sequence of 468 kinases including some pathogenic mutants (Homo sapiens, UniProt P53779) (P53779 whole entry, change not shown): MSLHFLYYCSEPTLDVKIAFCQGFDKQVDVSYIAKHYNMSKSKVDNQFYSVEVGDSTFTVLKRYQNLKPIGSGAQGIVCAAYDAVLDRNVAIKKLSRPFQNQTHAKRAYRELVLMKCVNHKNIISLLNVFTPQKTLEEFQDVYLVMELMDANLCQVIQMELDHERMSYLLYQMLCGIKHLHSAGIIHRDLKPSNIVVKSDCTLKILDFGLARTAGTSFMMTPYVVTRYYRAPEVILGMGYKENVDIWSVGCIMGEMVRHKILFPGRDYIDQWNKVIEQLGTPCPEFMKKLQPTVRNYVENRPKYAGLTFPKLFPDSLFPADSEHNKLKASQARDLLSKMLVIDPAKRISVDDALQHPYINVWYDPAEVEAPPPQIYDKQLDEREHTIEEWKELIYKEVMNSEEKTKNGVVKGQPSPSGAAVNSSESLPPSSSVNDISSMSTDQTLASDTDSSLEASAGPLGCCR
Sequence of 468 kinases including some pathogenic mutants (Homo sapiens, UniProt P11309) (P11309 whole entry, change not shown): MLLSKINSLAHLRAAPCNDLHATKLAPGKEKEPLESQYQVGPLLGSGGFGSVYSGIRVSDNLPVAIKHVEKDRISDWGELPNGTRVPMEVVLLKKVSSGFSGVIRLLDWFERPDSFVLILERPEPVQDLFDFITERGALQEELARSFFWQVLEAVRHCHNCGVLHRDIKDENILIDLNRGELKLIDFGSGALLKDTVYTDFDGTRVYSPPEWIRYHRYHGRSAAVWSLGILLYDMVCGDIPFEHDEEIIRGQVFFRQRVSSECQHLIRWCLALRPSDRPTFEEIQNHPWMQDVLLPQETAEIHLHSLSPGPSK

SMILES: CN1C(=O)[C@@H](N2CCc3c(nn(Cc4ccccc4)c3C(N)=O)C2=O)COc2cc(Cl)ccc21 [Compound 10, (S)-2-benzyl-6-(8-chloro-5-methyl-4-oxo-2,3,4,5-tetrahydrobenzo[b][1,4]oxazepin-3-yl)-7-oxo-4,5,6,7-tetrahydro-2H-pyrazolo[3,4-c]pyridine-3-carboxamide]
- remaining activity at 0.1 µM [1]: 100%
- remaining activity at 1 µM [2]: 100%
- remaining activity at 0.1 µM [3]: 71%
- remaining activity at 0.1 µM [4]: 70%
- remaining activity at 1 µM [5]: 100%
- remaining activity at 0.1 µM [6]: 83%
- remaining activity at 0.1 µM [7]: 77%
- remaining activity at 0.1 µM [8]: 93%
- remaining activity at 0.1 µM [9]: 57%
- remaining activity at 0.1 µM [10]: 94%
- remaining activity at 1 µM [11]: 100%
- remaining activity at 0.1 µM [12]: 84%
- remaining activity at 1 µM [13]: 100%
- remaining activity at 0.1 µM [14]: 98%
- remaining activity at 1 µM [15]: 100%
- remaining activity at 0.1 µM [16]: 87%
- remaining activity at 1 µM (RET(V804M)): 93%
- remaining activity at 1 µM (FLT3(D835V)): 56%
- remaining activity at 1 µM [17]: 86%
- remaining activity at 1 µM [18]: 78%
- remaining activity at 1 µM (KIT(L576P)): 92%
- remaining activity at 1 µM (EGFR(L861Q)): 88%
- remaining activity at 0.1 µM (PIK3CA(H1047Y)): 100%
- remaining activity at 0.1 µM (KIT(A829P)): 86%
- remaining activity at 0.1 µM (EGFR(T790M)): 100%
- remaining activity at 0.1 µM (RET(V804L)): 84%
- remaining activity at 1 µM (FLT3(D835H)): 100%
- remaining activity at 0.1 µM [19]: 100%
- remaining activity at 1 µM (PIK3CA(Q546K)): 97%
- remaining activity at 1 µM (ALK(C1156Y)): 82%
